{"source": "paper PMC10386886", "about": "“First-in-class multifunctional TYMS nonclassical antifolate inhibitor with potent in vivo activity that prolongs survival” (JCI Insight, 2023)", "target": "T1, purified human TYMS (Homo sapiens, UniProt P04818)", "T1 construct": "6xHis (N); made in house; host or cells: E. coli BL21 (DE3), vector pQE80L-hTYMS", "T1 sequence (P04818 whole entry)": "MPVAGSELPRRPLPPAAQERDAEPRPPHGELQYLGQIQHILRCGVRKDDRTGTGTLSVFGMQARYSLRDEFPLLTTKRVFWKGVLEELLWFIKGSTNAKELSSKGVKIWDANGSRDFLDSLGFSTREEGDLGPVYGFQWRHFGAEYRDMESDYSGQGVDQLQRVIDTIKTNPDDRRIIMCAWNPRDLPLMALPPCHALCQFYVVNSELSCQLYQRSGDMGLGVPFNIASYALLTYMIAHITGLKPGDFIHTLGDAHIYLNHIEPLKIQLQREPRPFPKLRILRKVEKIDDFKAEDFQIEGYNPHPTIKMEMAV", "assay": "Tritium-based TYMS catalytic activity assay", "type": "biochemical", "description": "To determine the inhibition of TYMS activity, we utilized a tritium-based TYMS catalytic assay (Figure 1A) to quantify the conversion of dUMP, which is proportional to TYMS activity ([33]). The assay was based on a previously published protocol ([33]) and modified to determine the amount of purified human TYMS (hTYMS) to be used in the conversion of dUMP to dTMP. […]\nTritium based TYMS catalytic activity assay\nThe catalytic activity of TYMS was determined by measuring the release of [3H] from [5-3H]dUMP (ViTrax, Cat # VT122) resulting from the conversion of dUMP to dTMP as previously described (2, 3).\nThe reaction conditions were optimized to determine the amount of TYMS protein needed to establish […]\nreactions performed without TYMS or without the 5,10-methylene tetrahydrofolate (5,10-mTHF) cofactor (Supplemental Figure 2 and Supplemental methods). Reactions were performed in 50 mM KH2PO4 (Sigma Aldrich, Cat # P0662) at pH 7.2 using 2 µg of purified human TYMS. Reactions were performed in a final volume of 200 µL with 100 mM β-mercaptoethanol (Sigma Aldrich, Cat # M7522), 40 µM dUMP (Sigma Aldrich, Cat # D3876), 100 µM 5,10-mTHF, and the [5-3H]dUMP tracer (ViTrax, Cat # VT122) accounting for 0.06% of the final dUMP concentration in the reaction. The 5,10-mTHF used in the reaction was separately generated from tetrahydrofolic acid (Sigma Aldrich, Cat # T3125) by dissolving the solid in 10 mM KH2PO4 with 143 mM β-mercaptoethanol (1:100 from 14.3 M pure liquid), and 6.35 mM formaldehyde (Sigma Aldrich, Cat # 47608) to yield a 100 mM stock solution of 5,10- mTHF. Reactions were initiated by the addition of the dUMP substrate and 5,10-mTHF cofactor, then incubated at 37 °C for 30 minutes. […]\nbefore the reaction was initiated by the addition of the dUMP substrate and 5,10-mTHF cofactor.\nReactions were terminated by the addition of 100 µL of ice-cold 20% trichloroacetic acid (Sigma Aldrich, Cat # T6399), then excess [5-3H]dUMP was removed by the addition of 200 µL of an albumin-coated activated charcoal solution. The albumin-coated activated charcoal solution was prepared by mixing 10 g of acid- washed activated dextran coated charcoal (Sigma Aldrich, Cat # C6241) with 2.5 g of bovine albumin (Sigma Aldrich, Cat # A1933) in 100 mL of H2O. The suspension was incubated at room temperature for 30 minutes and then centrifuged for 30 minutes at 10,000 x g. Then 150 µL of the supernatant was collected and added to 5 mL of ultima gold liquid scintillation cocktail (Perkin Elmer, Cat # 6013326, lot: 77-19085), and scintillation measurements were perform using a liquid scintillation counter (Beckman Coulter LS6500) to determine [3H]H2O levels in each sample. For all experiments, positive control reactions were performed with no drug representing 100% TYMS activity, and negative", "data": [{"smiles": "CCc1nc(N)nc(N)c1-c1ccc(N(C)Cc2ccc3c(c2)OCO3)c([N+](=O)[O-])c1", "note": "[Compound 19-S7]", "values": [{"measurement": "TS activity, screen of 19-S series analogs", "setting": "250 μM, Figure 6A", "value": "inhibited TYMS activity"}, {"measurement": "TS activity, comparison at decreasing drug concentrations", "setting": "Figure 6C", "value": "greater TYMS inhibition than both MTX and PEM"}]}]}
